# Data reported in PMC11233931, “Remodeling tumor‐associated macrophage for anti‐cancer effects by rational design of irreversible inhibition of mitogen‐activated protein kinase‐activated protein kinase 2” (MedComm, 2024).
# Key:
# [1] = molecular target: T1, 380 human recombinant protein kinases (Homo sapiens, UniProt P54753); assay: Eurofins kinase selectivity profile against 380 other human recombinant kinases (Table S2); assay type: biochemical; settings: EphB3(h), read-out: Inhibition rate
# T1 construct: purchased Eurofins (Celle Lévescault)
# T1 sequence (P54753 34-998): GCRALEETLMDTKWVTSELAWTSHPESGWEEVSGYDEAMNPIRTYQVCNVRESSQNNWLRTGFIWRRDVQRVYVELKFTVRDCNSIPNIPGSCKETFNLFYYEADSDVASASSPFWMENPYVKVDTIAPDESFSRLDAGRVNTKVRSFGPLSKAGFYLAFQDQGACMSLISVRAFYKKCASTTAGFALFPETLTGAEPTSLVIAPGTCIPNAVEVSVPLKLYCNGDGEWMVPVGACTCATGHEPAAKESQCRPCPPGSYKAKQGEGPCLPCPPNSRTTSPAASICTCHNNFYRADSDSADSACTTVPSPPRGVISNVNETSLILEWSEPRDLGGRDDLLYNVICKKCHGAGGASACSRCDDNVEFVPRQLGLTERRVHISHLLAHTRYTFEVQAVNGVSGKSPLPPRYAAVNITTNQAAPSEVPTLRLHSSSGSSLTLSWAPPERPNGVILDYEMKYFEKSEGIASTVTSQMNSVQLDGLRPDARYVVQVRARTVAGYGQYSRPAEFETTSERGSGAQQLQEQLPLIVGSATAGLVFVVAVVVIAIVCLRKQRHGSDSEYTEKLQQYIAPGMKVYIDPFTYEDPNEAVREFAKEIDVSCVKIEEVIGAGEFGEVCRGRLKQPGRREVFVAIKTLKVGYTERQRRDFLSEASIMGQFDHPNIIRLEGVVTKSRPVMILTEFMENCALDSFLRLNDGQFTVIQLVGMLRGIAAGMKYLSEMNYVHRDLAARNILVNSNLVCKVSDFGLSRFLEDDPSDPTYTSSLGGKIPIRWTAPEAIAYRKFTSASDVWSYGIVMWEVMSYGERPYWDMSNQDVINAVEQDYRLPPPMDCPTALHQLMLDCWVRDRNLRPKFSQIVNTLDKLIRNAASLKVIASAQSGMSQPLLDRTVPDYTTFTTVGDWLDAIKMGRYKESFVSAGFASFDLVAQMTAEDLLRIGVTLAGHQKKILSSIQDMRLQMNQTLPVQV
# Procedure, shortened: (§1)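 Outsourced panel: 380 human recombinant kinases; inhibitor tested at various concentrations; purpose: MK2 selectivity check.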
# [2] = molecular target: T2, 380 human recombinant protein kinases (Homo sapiens, UniProt Q7L7X3); assay: as above; assay type: biochemical; settings: TAO1(h), read-out: Inhibition rate (%)
# T2 construct: purchased Eurofins (Celle Lévescault)
# T2 sequence (Q7L7X3 1-1001): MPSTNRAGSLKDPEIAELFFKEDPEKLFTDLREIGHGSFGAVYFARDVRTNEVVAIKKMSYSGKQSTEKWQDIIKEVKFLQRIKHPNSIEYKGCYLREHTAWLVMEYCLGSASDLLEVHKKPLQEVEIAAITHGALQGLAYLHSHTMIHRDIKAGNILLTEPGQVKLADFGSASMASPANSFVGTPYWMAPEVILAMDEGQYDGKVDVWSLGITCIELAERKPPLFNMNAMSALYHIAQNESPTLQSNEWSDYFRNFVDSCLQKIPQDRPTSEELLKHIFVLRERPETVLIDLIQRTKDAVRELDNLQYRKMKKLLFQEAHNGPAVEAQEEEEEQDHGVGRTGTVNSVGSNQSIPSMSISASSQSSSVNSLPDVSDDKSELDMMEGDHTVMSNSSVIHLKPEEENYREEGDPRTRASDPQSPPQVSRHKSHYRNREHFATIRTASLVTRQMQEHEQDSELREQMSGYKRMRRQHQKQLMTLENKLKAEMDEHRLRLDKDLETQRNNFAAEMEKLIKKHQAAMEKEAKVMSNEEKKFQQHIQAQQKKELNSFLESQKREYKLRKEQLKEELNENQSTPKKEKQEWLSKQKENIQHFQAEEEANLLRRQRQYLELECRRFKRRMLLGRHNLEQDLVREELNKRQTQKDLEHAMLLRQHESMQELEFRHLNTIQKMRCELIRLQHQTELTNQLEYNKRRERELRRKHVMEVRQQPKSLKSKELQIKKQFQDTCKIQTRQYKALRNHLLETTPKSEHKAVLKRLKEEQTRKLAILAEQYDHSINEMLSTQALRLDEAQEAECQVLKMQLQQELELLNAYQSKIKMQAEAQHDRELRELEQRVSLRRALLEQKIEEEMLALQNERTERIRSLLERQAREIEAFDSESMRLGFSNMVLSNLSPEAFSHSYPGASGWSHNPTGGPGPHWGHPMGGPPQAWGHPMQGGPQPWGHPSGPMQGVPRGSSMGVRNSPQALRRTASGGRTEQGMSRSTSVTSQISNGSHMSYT
# Procedure, shortened: as §1
smiles,measurement,setting,value
C=CC(=O)Nc1cc(-c2cc(-c3cc4c([nH]3)CCNC4=O)ccn2)ccc1OC(F)(F)F [compound 11],inhibition at 0.01 µM,[1]; 10 nM,3%
same,inhibition at 0.1 µM,[1]; 100 nM,-12%
same,inhibition at 1 µM,[1]; 1000 nM,-1%
same,inhibition at 0.01 µM,[2]; 10 nM,3%
same,inhibition at 0.1 µM,[2]; 100 nM,6%
same,inhibition at 1 µM,[2]; 1000 nM,11%
